From patent US7491827B2, “Aryl sulfonamides useful as inhibitors of chemokine receptor activity” (Millennium Pharmaceuticals, Inc., priority 2003, dated 2009) come the findings set out here.

Usually Ki stands for the dissociation constant of the complex between target and ligand, obtained from inhibition or displacement.

T1 sequence (P51685 whole entry): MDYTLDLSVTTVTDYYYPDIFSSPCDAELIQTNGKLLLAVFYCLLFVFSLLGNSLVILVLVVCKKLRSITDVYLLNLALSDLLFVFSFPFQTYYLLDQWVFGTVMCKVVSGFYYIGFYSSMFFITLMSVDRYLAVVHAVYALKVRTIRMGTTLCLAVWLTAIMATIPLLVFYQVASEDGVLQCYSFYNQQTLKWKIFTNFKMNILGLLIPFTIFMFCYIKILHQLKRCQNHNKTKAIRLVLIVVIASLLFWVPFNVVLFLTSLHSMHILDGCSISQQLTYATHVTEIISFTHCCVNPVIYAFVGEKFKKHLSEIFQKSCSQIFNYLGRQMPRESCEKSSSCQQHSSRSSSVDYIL

The first assay addresses T1, cloned human CCR8 receptor stably expressed in L1.2 cells (Homo sapiens, UniProt P51685).
T1 construct: expressed in transfected cells
As to the kind of experiment: whole cell binding screen: inhibition of biotinylated human I309 binding to CCR8 (FMAT 8100 HTS). Particulars: Ki of compounds to inhibit I-309 binding to CCR8, L1.2/hCCR8 cells, biotinylated human I-309, 10 point concentration response starting at 10 μM. An excerpt:
This whole cell binding screen evaluates the ability of compounds to inhibit biotinlyated human I309 binding to the cloned human CCR8 receptor stably expressed in L1.2 cells. Human CCR8 gene was amplified by PCR using PFU polymerase under standard conditions from human genomic DNA purchased from Stratagene. The PCR primers used were:
The 5′ and 3′ primers contained flanking enzyme sites (Bam Hi and Not 1,respectively), which were used to subclone the gene into pcDNA3.1. […] The CCR8 vector was then transfected into L1.2 cells (murine pre-B cells) by electroporation.
Compounds were screened using the FMAT™ 8100 HTS System (purchased from Applied Biosystems).
A suspension was prepared of L1.2/hCCR8 cells at 4.0×10^5 cells/mL in a binding buffer (Buffer consisting of Hanks Balanced Salt Solution (without phenol red), 10 mM HEPES, 0.1% Fatty Acid Free BSA, 0.02% Sodium Azide).
Dilution series of 10 mM stock concentrations of the test compounds were prepared in DMSO and further diluted into binding buffer defined above) to three times the final assay concentration.
10 point concentration response curve is constructed for each compound, starting at 10 μM (final assay concentration in Binding Buffer). […] The components were mixed in wells by covering the plate with aluminum foil and rotating for 0.5 hours. […] Average fluorescence reported for each concentration was normalized to percent inhibition based on negative (no inhibitor) and positive (100 nM excess unlabeled I309 (R and D Systems)) controls.
For `CCNC(=O)N1CCC(NS(=O)(=O)c2ccc(NC(=O)c3ccccc3C)c3ccccc23)CC1` [Compound C-34, 4-[4-(2-Methyl-benzoylamino)-naphthalene-1-sulfonylamino]-piperidine-1-carboxylic acid ethylamide], the Ki is < 500 nM.

Turning to `CC(=O)N1CCC(NS(=O)(=O)c2ccc(NC(=O)c3ccccc3C)c3ccccc23)CC1` [Compound C-49, N-[4-(1-Acetyl-piperidin-4-ylsulfamoyl)-naphthalen-1-yl]-2-methyl-benzamide], the Ki was < 500 nM.

The assay is the same for the next values; noted with them: L1.2/hCCR8 cells, biotinylated human I-309, 10 point concentration response starting at 10 μM; read-out: Ki of compounds to inhibit I-309 binding to CCR8.
As for `CCCC(=O)N1CC[C@H](NS(=O)(=O)c2ccc(NC(=O)c3ccccc3C)c3ccccc23)[C@@H](CO)C1` (racemic) [Compound C-76, (±)-(trans)-N-[4-(1-butyryl-3-hydroxymethyl-piperidin-4-ylsulfamoyl)-naphthalen-1-yl]-2-methyl-benzamide], the inhibitory constant (Ki) is < 500 nM.

Take `CC[C@@H]1CN(C(=O)[C@@H]2CCCN2)CC[C@H]1NS(=O)(=O)c1ccc(NC(=O)c2ccccc2C)c2ccccc12` [Compound J-30, (3R, 4R)-N-{4-[3-Ethyl-1-(pyrrolidine-2-(S)-carbonyl)-piperidin-4-ylsulfamoyl]-naphthalen-1-yl}-2-methyl-benzamide]: the Ki is < 500 nM.

On to `Cc1cccc(NC(=O)c2ccc(S(=O)(=O)NC3CCNCC3)c3ccccc23)c1C` [Compound F-16, 4-(Piperidin-4-ylsulfamoyl)-naphthalene-1-carboxylic acid (2,3-dimethyl-phenyl)-amide], for which the Ki was < 30000 nM.

As to `CCCC(=O)N1CCC(C)(NS(=O)(=O)c2ccc(NC(=O)c3ccccc3C)c3ccccc23)CC1` [Compound C-27, N-[4-(1-Butyryl-4-methyl-piperidin-4-ylsulfamoyl)-naphthalen-1-yl]-2-methyl-benzamide], the Ki is < 500 nM.

Take `O=C(Nc1ccc(S(=O)(=O)NC2CCCCC2)c2c1CCCC2)C1CCCCC1` [Compound E-5, Cyclohexanecarboxylic acid (4-cyclohexylsuffamoyl-5,6,7,8-tetrahydro-naphthalen-1-yl)-amide]: the Ki is < 500 nM.

Take `COc1ccc(NS(=O)(=O)c2ccc(NC(=S)Nc3ccccc3)c3ccccc23)cc1` [Compound B-9, 4-(3-Phenyl-thioureido)-naphthalene-1-sulfonic acid (4-methoxy-phenyl)-amide]: the Ki was < 30000 nM.

Regarding `CCCC(=O)N1CCC(NS(=O)(=O)c2ccc(C(=O)Nc3ccccc3C)c3ccccc23)CC1` [Compound F-9, 4-(1-Butyryl-piperidin-4-ylsulfamoyl)-naphthalene-1-carboxylic acid o-tolylamide], the Ki was < 500 nM.

`Cc1ccccc1C(=O)Nc1ccc(S(=O)(=O)N[C@@H]2CCN(C(=O)CN3CCOCC3)C[C@@H]2C)c2ccccc12` (racemic) [Compound C-145, (±)-2-Methyl-N-{4-[3-cis-methyl-1-(2-morpholin-4-yl-acetyl)-piperidin-4-ylsulfamoyl]-naphthalen-1-yl}-benzamide]: the Ki is < 1000 nM.

For the compound `CCOC(=O)N1CC[C@H](NS(=O)(=O)c2ccc(NC(=O)c3cccnc3C)c3ccccc23)[C@@H](C)C1` (racemic) [Compound D-9, (±)-(trans)-3-Methyl-4-{4-[(2-methyl-pyridine-3-carbonyl)-amino]-naphthalene-1-sulfonylamino}-piperidine-1-carboxylic acid ethyl ester], the Ki was < 500 nM.

Consider `O=C(Nc1ccc(S(=O)(=O)Nc2ccc(-c3ccccc3)cc2)c2ccccc12)c1ccccc1` [Compound A-29], for which the Ki is < 30000 nM.

On to `CCCC(=O)N1CCC(NS(=O)(=O)c2ccc(NC(=O)C3CC3)c3ccccc23)CC1` [Compound D-15, Cyclopropanecarboxylic acid [4-(1-butyryl-piperidin-4-ylsulfamoyl)-naphthalen-1-yl]-amide], for which the Ki is < 500 nM.

Consider `CCCC(=O)N1CCC(NS(=O)(=O)c2ccc(NC(=O)c3ccccc3C)c3c2CCC3)CC1` [Compound H-65, N-[7-(1-Butyryl-piperidin-4-ylsulfamoyl)-indan-4-yl]-2-methyl-benzamide], for which the Ki is < 500 nM.

With `O=C(Nc1ccc(S(=O)(=O)NC2CCN(C(=O)N3CCOCC3)CC2)c2ccccc12)c1ccccc1` [Compound C-4, N-{4-[1-(Morpholine-4-carbonyl)-piperidin-4-ylsulfamoyl]-naphthalen-1-yl}-benzamide], the Ki is < 500 nM.

On to `Cc1ccccc1C(=O)Nc1ccc(S(=O)(=O)NC2CCN(C(=O)CN3CCCC3)CC2)c2ccccc12` [Compound C-147, 2-Methyl-N-{4-[1-(2-pyrrolidin-1-yl-acetyl)-piperidin-4-ylsulfamoyl]-naphthalen-1-yl}-benzamide], for which the Ki is < 500 nM.

On to `Cc1ccccc1C(=O)Nc1ccc(S(=O)(=O)N[C@H]2CCNC[C@@H]2C)c2ccccc12` [Compound J-44], for which the Ki was < 500 nM.

Regarding `CCNC(=O)N1CC[C@H](NS(=O)(=O)c2ccc(NC(=O)c3ccccc3C)c3ccccc23)[C@@H](C)C1` (racemic) [Compound C-16, (±)-trans-3-Methyl-4-[4-(2-methyl-benzoylanlino)-naphthalene-1-sulfonylamino]-piperidine-1-carboxylic acid ethylaiide], the Ki was < 500 nM.

`CCOC(=O)[C@@H]1CN(Cc2ccccc2)CC[C@H]1NS(=O)(=O)c1ccc(NC(=O)c2ccccc2C)c2ccccc12` (racemic) [Compound A-48, (±)-(trans)-1-Benzyl-4-[4-(2-methyl-benzoylamino)-naphthalene-1-sulfonylamino]-piperidine-3-carboxylic acid ethyl ester]: the Ki is < 30000 nM.

In the case of `COc1ccc(NS(=O)(=O)c2ccc3cccc(NC(=O)c4ccccc4)c3c2)cc1` [Compound H-47, N-[7-(4-Methoxy-phenylsulfamoyl)-naphthalen-1-yl]-benzamide], the Ki was < 500 nM.

As for `Cc1ccccc1C(=O)Nc1ccc(S(=O)(=O)NC2CCNCC2)c2ccccc12` [Compound C-36, 2-Methyl-N-[4-(piperidin-4-ylsulfamoyl)-naphthalen-1-yl]-benzamide], the Ki was < 500 nM.

With `CN1CCC(C(=O)Nc2ccc(S(=O)(=O)NC3CCNCC3)c3ccccc23)CC1` [Compound D-17, 1-Methyl-piperidine-4-carboxylic acid [4-(piperidin-4-ylsulfamoyl)-naphthalen-1-yl]-amide], the Ki was < 30000 nM.

Turning to `CCOC(=O)N1CCCC(NS(=O)(=O)c2ccc(NC(=O)c3ccccc3C)c3c2CCCC3)C1` (racemic) [Compound E-31, (±)-3-[4-(2-Methyl-benzoylamino)-5,6,7,8-tetrahydro-naphthalene-1-sulfonylamino]-piperidine-1-carboxylic acid ethyl ester], the Ki is < 500 nM.

Regarding `CCC(C)N1CCC(NS(=O)(=O)c2ccc(NC(=O)c3ccccc3C)c3ccccc23)CC1` (racemic) [Compound C-32, (±)-N-[4-(1-sec-Butyl-piperidin-4-ylsulfamoyl)-naphthalen-1-yl]-2-methyl-benzamide], the inhibition constant Ki is < 1000 nM.

Consider `CCOC(=O)N1CC[C@H](NS(=O)(=O)c2ccc(NC(=O)c3c(C)noc3C)c3ccccc23)[C@H](C)C1` (racemic) [Compound D-8, (±)-(cis)-4-{4-[(3,5-Dimethyl-isoxazole-4-carbonyl)-amino]-naphthalene-1-sulfonylamino}-3-methyl-piperidine-1-carboxylic acid ethyl ester], for which the Ki was < 500 nM.

In the case of `CCCC(=O)N1CCC(NS(=O)(=O)c2ccc(C(=O)Nc3cccc(C)c3C)c3ccccc23)CC1` [Compound F-19, 4-(1-Butyryl-piperidin-4-ylsulfamoyl)-naphthalene-1-carboxylic acid (2,3-dimethyl-phenyl)-amide], the Ki is < 500 nM.

With `O=C(Nc1ccc(S(=O)(=O)NC2CCCCC2)c2c1CCCC2)c1ccccc1` [Compound E-2, N-(4-Cyclohexylsulfamoyl-5,6,7,8-tetrahydro-naphthalen-1-yl)-benzamide], the Ki is < 500 nM.

In the case of `Cc1ccccc1C(=O)Nc1ccc(S(=O)(=O)N[C@H]2CCN(C(=O)OC(C)C)C[C@@H]2C)c2ccccc12` (racemic) [Compound C-18, (±)-trans-3-methyl-4-[4-(2-methyl-benzoylalino)-naphthalene-1-sulfonylamino]-piperidine-1-carboxylic acid isopropyl ester], the Ki is < 500 nM.

`Cc1ccccc1C(=O)Nc1ccc(S(=O)(=O)N[C@H]2CCNC[C@H]2C)c2ccccc12` (racemic) [Compound C-28, (±)-cis-2-Methyl-N-[4-(3-methyl-piperidin-4-ylsulfamoyl)-naphthalen-1-yl]-benzamide]: the Ki is < 1000 nM.

With `C[C@@H]1CNCC[C@@H]1NS(=O)(=O)c1ccc(N2C(=O)c3ccccc3C2=O)c2ccccc12` (racemic) [Compound C-74, (±)-(cis)-4-(1,3-Dioxo-1,3-dihydro-isoindol-2-yl)-naphthalene-1-sulfonic acid (3-methyl-piperidin-4-yl)-amide], the Ki is < 30000 nM.

Turning to `CCOC(=O)N1CCC(NS(=O)(=O)c2ccc(NC(=O)c3cccc(C)c3C)c3ccccc23)CC1` [Compound B-27], the Ki is < 500 nM.
